Data published in patent US9624197B2, “2-pyridylamino-4-nitrile-piperidinyl orexin receptor antagonists” (MERCK SHARP & DOHME CORP., priority 2012, dated 2017).
pIC50: −log10 of the molar value.

What was measured:
human orexin-2 receptor = human orexin-2 receptor (Homo sapiens (Human), UniProt O43614); test: FLIPR Ca2+ Flux Assay, CHO cells expressing human orexin-2 receptor; type: cell-based; conditions: agonist 70 pM Ala-6,12 human orexin-A, read-out: hOX2R FLIPR IC50
Description: (§1) The utility of the compounds in accordance with the present invention as orexin receptor OX1R and/or OX2R antagonists may be readily determined without undue experimentation by methodology well known in the art, including the “FLIPR Ca^2+ Flux Assay” (Okumura et al., Biochem. Biophys. Res. Comm. 280:976-981, 2001). In a typical experiment the OX1 and OX2 receptor antagonistic activity of the compounds of the present invention was determined in accordance with the following experimental method. For intracellular calcium measurements, Chinese hamster ovary (CHO) cells expressing the rat orexin-1 receptor or the human orexin-2 receptor, are grown in Iscove's modified DMEM containing 2 mM L-glutamine, […], 1% hypoxanthine-thymidine supplement, 100 U/ml penicillin, 100 μg/ml streptomycin and 10% heat-inactivated fetal calf serum (FCS). The cells are seeded at 20,000 cells/well into Becton-Dickinson black 384-well clear bottom sterile plates coated with poly-D-lysine. All reagents were from GIBCO-Invitrogen Corp. The seeded plates are incubated overnight at […]. and 5% CO2. Ala-6,12 human orexin-A as the agonist is prepared as a 1 mM stock solution in 1% bovine serum albumin (BSA) and diluted in assay buffer (HBSS containing 20 mM HEPES, 0.1% BSA and 2.5 mM probenecid, pH7.4) for use in the assay at a final concentration of 70 pM. Test compounds are prepared as 10 mM stock solution in DMSO, then diluted in 384-well plates, first in DMSO, then assay buffer. On the day of the assay, cells are washed 3 times with 100 μl assay buffer and then incubated for 60 min (37° C., 5% CO2) in 60 μl assay buffer containing 1 μM Fluo-4AM ester, 0.02% pluronic acid, and 1% BSA. The dye loading solution is then aspirated and cells are washed 3 times with 100 μl assay buffer. 30 μl of that same buffer is left in each well. Within the Fluorescent Imaging Plate Reader (FLIPR, Molecular Devices), test compounds are added to the plate in a volume of 25 μl, incubated for 5 min and finally 25 μl of agonist is added. Fluorescence is measured for each well at 1 second intervals for 5 minutes and the height of each fluorescence peak is compared to the height of the fluorescence peak induced by 70 pM Ala-6,12 orexin-A with buffer in place of antagonist. For each antagonist, IC50 value (the concentration of compound needed to inhibit 50% of the agonist response) is determined. Alternatively, compound potency can be assessed by a radioligand binding assay (described in Bergman et. al. Bioorg. Med. Chem. Lett. 2008, 18, 1425-1430) in which the inhibition constant (Ki) is determined in membranes prepared from CHO cells expressing either the OX1 or OX2 receptor. The intrinsic orexin receptor antagonist activity of a compound which may be used in the present invention may be determined by these assays.

rat orexin-1 receptor = rat orexin-1 receptor (Rattus norvegicus, UniProt P56718); test: FLIPR Ca2+ Flux Assay, CHO cells expressing rat orexin-1 receptor; type: cell-based; conditions: agonist 70 pM Ala-6,12 human orexin-A, text says rat orexin-1 receptor, read-out: hOX1R FLIPR IC50
Description: as §1

Sequence of human orexin-2 receptor (O43614 whole entry): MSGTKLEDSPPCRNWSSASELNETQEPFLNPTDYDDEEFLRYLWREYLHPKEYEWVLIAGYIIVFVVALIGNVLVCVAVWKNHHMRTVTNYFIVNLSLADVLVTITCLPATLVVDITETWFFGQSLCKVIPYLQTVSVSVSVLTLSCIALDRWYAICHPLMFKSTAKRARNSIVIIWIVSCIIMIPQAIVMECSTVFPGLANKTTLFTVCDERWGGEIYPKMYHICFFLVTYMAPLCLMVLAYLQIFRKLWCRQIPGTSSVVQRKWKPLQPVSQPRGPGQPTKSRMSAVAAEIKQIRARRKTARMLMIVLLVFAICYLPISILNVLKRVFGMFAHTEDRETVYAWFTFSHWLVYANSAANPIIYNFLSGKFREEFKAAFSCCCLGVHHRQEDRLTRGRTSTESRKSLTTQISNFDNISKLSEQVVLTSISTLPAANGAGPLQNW

What does the source list for `CCCN(c1cc(C#N)ccn1)[C@@H]1CC[C@@H](C)N(C(=O)c2ccccc2-n2nccn2)C1` [Example 14, 2-{[(3R,6R)-6-methyl-1-{[2-(2H-1,2,3-triazol-2-yl)phenyl]carbonyl}piperidin-3-yl](propyl)-amino}pyridine-4-carbonitrile]?
pIC50 (human orexin-2 receptor): 7.89; pIC50 (rat orexin-1 receptor): 6.48

Which results are given for `COc1c(C#N)ccnc1N(C)[C@@H]1CC[C@@H](C)N(C(=O)c2ccsc2-c2ncccn2)C1` [Example 11, 3-methoxy-2-(methyl{(3R,6R)-6-methyl-1-[(2-pyrimidin-2-ylthiophen-3-yl)carbonyl]piperidin-3-yl}amino)pyridine-4-carbonitrile]?
pIC50 (human orexin-2 receptor): 7.47; pIC50 (rat orexin-1 receptor): < 5.00

With `C=CCN(c1cc(C#N)ccn1)[C@@H]1CC[C@@H](C)N(C(=O)c2ccccc2-n2nccn2)C1` [Example 13, 2-{[(3R,6R)-6-methyl-1-{[2-(2H-1,2,3-triazol-2-yl)phenyl]carbonyl}piperidin-3-yl](prop-2-en-1-yl)amino}pyridine-4-carbonitrile] as the molecule, how does the pIC50 (human orexin-2 receptor) read?
The pIC50 was 7.64.

What about the pIC50 (rat orexin-1 receptor) of the same molecule?
Its pIC50 is 5.59.

What does the source list for `COc1c(C#N)ccnc1N[C@@H]1CC[C@@H](C)N(C(=O)c2ccccc2-n2nccn2)C1` [Example 2, 3-methoxy-2-{[(3R,6R)-6-methyl-1-{[2-(2H-1,2,3-triazol-2-yl)phenyl]carbonyl}piperidin-3-yl]amino}pyridine-4-carbonitrile]?
pIC50 (human orexin-2 receptor): 7.96; pIC50 (rat orexin-1 receptor): 6.57

With `CC(=O)N(c1cc(C#N)ccn1)[C@@H]1CC[C@@H](C)N(C(=O)c2ccccc2-n2nccn2)C1` [Example 15, N-((3R,6R)-1-(2-(2H-1,2,3-Triazol-2-yl)benzoyl)-6-methylpiperidin-3-yl)-N-(4-cyanopyridin-2-yl)acetamide] as the molecule, how does the pIC50 (rat orexin-1 receptor) read?
Its pIC50 is under 5.00.

What does the source list for `COc1c(C#N)ccnc1N(C)[C@@H]1CC[C@@H](C)N(C(=O)c2ccsc2-n2nccn2)C1` [Example 10, 3-methoxy-2-{methyl[(3R,6R)-6-methyl-1-{[2-(2H-1,2,3-triazol-2-yl)thiophen-3-yl]carbonyl}piperidin-3-yl]amino}pyridine-4-carbonitrile]?
pIC50 (human orexin-2 receptor): 7.41; pIC50 (rat orexin-1 receptor): < 5.00

How did the pIC50 (human orexin-2 receptor) turn out when `C[C@@H]1CC[C@@H](N(C)c2cc(C#N)ccn2)CN1C(=O)c1ccccc1-n1ncnn1` [Example 9, 2-{methyl[(3R,6R)-6-methyl-1-{[2-(2H-tetrazol-2-yl)phenyl]-carbonyl}piperidin-3-yl]amino}pyridine-4-carbonitrile] was run?
The pIC50 was 7.49.

What about the pIC50 (rat orexin-1 receptor) of the same molecule?
The pIC50 was 5.65.

`CCN(c1cc(C#N)ccn1)[C@@H]1CC[C@@H](C)N(C(=O)c2ccccc2-n2nccn2)C1` [Example 12, 2-{ethyl[(3R,6R)-6-methyl-1-{[2-(2H-1,2,3-triazol-2-yl)phenyl]carbonyl}piperidin-3-yl]amino}-pyridine-4-carbonitrile] was tested. Which pIC50 (human orexin-2 receptor) did it give?
The pIC50 was 7.64.

What about the pIC50 (rat orexin-1 receptor) of the same molecule?
Its pIC50 is 5.70.

`C[C@@H]1CC[C@@H](Nc2cc(C#N)ccn2)CN1C(=O)c1ccccc1-n1nccn1` [Example 1, 2-(((3R,6R)-1-(2-(2H-1,2,3-Triazol-2-yl)benzoyl)-6-methylpiperidin-3-yl)amino)isonicotinonitrile] was tested. Which pIC50 (human orexin-2 receptor) did it give?
Its pIC50 is 7.54.

And the pIC50 (rat orexin-1 receptor)?
Its pIC50 is 5.76.

With `C[C@@H]1CC[C@@H](N(C)c2cc(C#N)ccn2)CN1C(=O)c1ccccc1-n1nccn1` [Example 8, 2-(((3R,6R)-1-(2-(2H-1,2,3-Triazol-2-yl)benzoyl)-6-methylpiperidin-3-yl)(methyl)amino)isonicotinonitrile] as the molecule, how does the pIC50 (human orexin-2 receptor) read?
Its pIC50 is 7.70.

What about the pIC50 (rat orexin-1 receptor) of the same molecule?
Its pIC50 is 5.69.

With `COc1c(C#N)ccnc1N[C@@H]1CC[C@@H](C)N(C(=O)c2ccsc2-c2ncccn2)C1` [Example 7, 3-methoxy-2-((3R,6R)-6-methyl-1-(2-(pyrimidin-2-yl)thiophene-3-carbonyl)piperidin-3-ylamino)isonicotinonitrile] as the molecule, how does the pIC50 (human orexin-2 receptor) read?
Its pIC50 is 7.33.

And the pIC50 (rat orexin-1 receptor)?
Its pIC50 is 6.42.

`Cc1c(C#N)ccnc1N[C@@H]1CC[C@@H](C)N(C(=O)c2ccccc2-n2nccn2)C1` [Example 4, 2-(((3R,6R)-1-(2-(2H-1,2,3-Triazol-2-yl)benzoyl)-6-methylpiperidin-3-yl)amino)-3-methylisonicotinonitrile] was tested. Which pIC50 (human orexin-2 receptor) did it give?
The pIC50 was 8.15.

And the pIC50 (rat orexin-1 receptor)?
Its pIC50 is 6.13.

With `COc1c(C#N)ccnc1N[C@@H]1CC[C@@H](C)N(C(=O)c2ccsc2-n2nccn2)C1` [Example 6, 2-((3R,6R)-1-(2-(2H-1,2,3-Triazol-2-yl)thiophene-3-carbonyl)-6-methylpiperidin-3-ylamino)-3-methoxyisonicotinonitrile] as the molecule, how does the pIC50 (human orexin-2 receptor) read?
Its pIC50 is 7.96.

What about the pIC50 (rat orexin-1 receptor) of the same molecule?
Its pIC50 is 6.08.

Which results are given for `C[C@@H]1CC[C@@H](Nc2cc(C#N)ccn2)CN1C(=O)c1ccccc1-n1ncnn1` [Example 3, 2-(((3R,6R)-1-(2-(2H-Tetrazol-2-yl)benzoyl)-6-methylpiperidin-3-yl)amino)isonicotinonitrile]?
pIC50 (human orexin-2 receptor): 8.05; pIC50 (rat orexin-1 receptor): 5.72

`Cc1c(C#N)ccnc1N[C@@H]1CC[C@@H](C)N(C(=O)c2ccccc2-n2ncnn2)C1` [Example 5, 3-methyl-2-{[(3R,6R)-6-methyl-1-{[2-(2H-tetrazol-2-yl)phenyl]-carbonyl}-piperidin-3-yl]amino}pyridine-4-carbonitrile] was tested. Which pIC50 (human orexin-2 receptor) did it give?
The pIC50 was 8.15.

What about the pIC50 (rat orexin-1 receptor) of the same molecule?
Its pIC50 is 5.94.
